One experiment addresses wild-type HIV-1 IN (Human immunodeficiency virus type 1 group M subtype B, UniProt P12497). The experiment in a line: biochemical. The format is biochemical.
A further experiment has as its target recombinant HIV-1 IN (Human immunodeficiency virus type 1 group M subtype B, UniProt P12497). Kind of experiment: biochemical. The format is biochemical.

Structures are written as SMILES.

The term IC50 denotes the concentration at which inhibition is half-maximal. In the case of `[O-][n+]1onc2ccccc21` [Compound 1, unsubstituted BFX], at wild-type HIV-1 IN, the IC50 was more than 1000 µM and the “Inhibitory potential, strand transfer” value is listed as “exhibited no inhibitory potential”. Moreover, at recombinant HIV-1 IN, the 50% inhibitory concentration (IC50) is more than 1000 µM and the “Inhibitory potential, 3'-processing” value is “exhibited no inhibitory potential”.

With `O=[N+]([O-])c1cc([N+](=O)[O-])c2no[n+]([O-])c2c1-[n+]1ccccc1` [Compound 24], the results for the IC50 against wild-type HIV-1 IN and on recombinant HIV-1 IN were 80 ± 20 µM and 75 ± 15 µM, respectively.

The values are drawn from article PMC3612826, “Structural-Functional Analysis of 2,1,3-Benzoxadiazoles and Their N-oxides As HIV-1 Integrase Inhibitors” (Acta Naturae, 2013).
